Counter-ions that a name gives are not always drawn. Some results are limits rather than exact numbers.

The text below walks through data of US8912180B2, “Heterocyclic compound” (Astellas Pharma Inc., priority 2010, dated 2014).

In one test the target is T1, human PI3Kδ enzyme (Homo sapiens, UniProt O00329).
T1 construct: purchased Millipore Corporation 14-604
Put plainly: PI3Kδ enzyme inhibitory activity (PI3-Kinase HTRF Assay kit). In kind it is biochemical. As to conditions: human PI3Kδ 10 ng/well, ATP 30 μM, PIP2 10 μM, room temperature 30 minutes. The protocol: 1. PI3Kδ Enzyme Inhibitory Activity
For the experiment, a PI3-Kinase HTRF Assay kit (Millipore Corporation, Catalogue No. 33-016) and a human PI3Kδ enzyme (Millipore Corporation, Catalogue No. 14-604) were used. The measurement method was in accordance with the appended instructions. The overview thereof is as follows.
PI3Kδ (10 ng/well), phosphatidylinositol-4,5-bisphosphate (10 μM), ATP (30 μM), and the test compound were mixed in a 384-well plate (total 20 μL), and incubated at room temperature for 30 minutes. EDTA and biotinylated phosphatidylinositol-3,4,5-triphosphate were added thereto to stop the reaction. Thereafter, a Europium labeled anti-GST antibody, a GST bond GRP1 PH domain, and streptavidin-APC were added thereto, followed by incubation overnight. An HTRF ratio was measured using an HTRF plate reader.
(In TR-FRET formats the signal depends on donor and acceptor labels being close together.)

The target in the next test is T2, Human PI3Kα (Homo sapiens, UniProt P42336).
T2 construct: purchased Millipore Corporation 14-602
T2 sequence (P42336 whole entry): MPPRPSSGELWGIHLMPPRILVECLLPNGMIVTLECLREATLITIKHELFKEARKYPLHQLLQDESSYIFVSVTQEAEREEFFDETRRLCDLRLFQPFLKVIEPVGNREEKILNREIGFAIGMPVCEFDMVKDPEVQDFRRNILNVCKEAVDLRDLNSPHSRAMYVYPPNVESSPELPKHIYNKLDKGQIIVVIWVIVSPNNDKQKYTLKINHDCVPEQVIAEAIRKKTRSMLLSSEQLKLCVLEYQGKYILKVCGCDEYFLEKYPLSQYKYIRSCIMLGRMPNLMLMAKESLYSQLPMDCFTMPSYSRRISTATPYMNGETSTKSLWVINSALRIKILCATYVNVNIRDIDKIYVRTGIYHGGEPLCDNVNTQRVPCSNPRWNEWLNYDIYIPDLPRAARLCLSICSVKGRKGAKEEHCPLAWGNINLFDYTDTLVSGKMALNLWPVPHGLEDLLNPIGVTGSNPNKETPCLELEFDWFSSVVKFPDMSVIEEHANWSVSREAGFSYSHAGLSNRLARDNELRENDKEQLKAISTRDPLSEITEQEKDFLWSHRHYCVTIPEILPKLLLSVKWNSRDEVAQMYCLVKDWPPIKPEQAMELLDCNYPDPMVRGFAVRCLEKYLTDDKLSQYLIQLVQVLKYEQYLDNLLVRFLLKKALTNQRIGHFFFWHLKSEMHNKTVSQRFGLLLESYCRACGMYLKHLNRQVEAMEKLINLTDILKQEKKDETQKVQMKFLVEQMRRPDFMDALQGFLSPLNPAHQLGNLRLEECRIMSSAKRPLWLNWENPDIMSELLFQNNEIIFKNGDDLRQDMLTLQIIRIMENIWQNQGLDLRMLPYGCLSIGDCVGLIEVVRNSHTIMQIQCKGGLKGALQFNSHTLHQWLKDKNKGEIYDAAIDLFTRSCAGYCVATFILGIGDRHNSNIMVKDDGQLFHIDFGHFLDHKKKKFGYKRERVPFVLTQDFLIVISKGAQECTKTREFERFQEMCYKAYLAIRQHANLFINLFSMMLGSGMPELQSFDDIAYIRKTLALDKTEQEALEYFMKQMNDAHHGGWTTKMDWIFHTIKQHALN
T2 sequence (P27986 whole entry partner): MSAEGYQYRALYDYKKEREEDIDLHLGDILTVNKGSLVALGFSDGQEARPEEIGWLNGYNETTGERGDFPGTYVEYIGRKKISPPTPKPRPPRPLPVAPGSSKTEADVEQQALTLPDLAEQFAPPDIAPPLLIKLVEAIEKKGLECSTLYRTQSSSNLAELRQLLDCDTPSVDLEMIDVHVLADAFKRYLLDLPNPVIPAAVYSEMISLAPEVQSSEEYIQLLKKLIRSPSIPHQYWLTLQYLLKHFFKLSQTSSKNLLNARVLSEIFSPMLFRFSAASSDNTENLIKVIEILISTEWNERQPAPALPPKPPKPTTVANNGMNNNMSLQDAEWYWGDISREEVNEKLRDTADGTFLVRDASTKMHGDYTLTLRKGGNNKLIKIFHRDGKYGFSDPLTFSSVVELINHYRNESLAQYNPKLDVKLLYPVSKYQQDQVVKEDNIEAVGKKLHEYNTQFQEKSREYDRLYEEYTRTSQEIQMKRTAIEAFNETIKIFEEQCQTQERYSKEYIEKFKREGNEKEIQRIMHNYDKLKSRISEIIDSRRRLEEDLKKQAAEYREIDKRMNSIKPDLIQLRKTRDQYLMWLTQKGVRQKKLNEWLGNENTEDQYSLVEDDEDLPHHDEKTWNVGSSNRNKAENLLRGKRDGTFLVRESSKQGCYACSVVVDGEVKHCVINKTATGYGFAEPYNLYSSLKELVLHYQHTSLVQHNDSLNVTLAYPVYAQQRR
Put plainly: PI3Kα enzyme inhibitory activity (Kinase-Glo Plus luminescence). Type of test: biochemical. The note with it: human PI3Kα 12 ng/well, phosphatidylinositol 0.2 μg/well, 37° C. 3 hours. The protocol:
2. PI3Kα Enzyme Inhibitory Activity
Human PI3Kα (12 ng/well, Millipore Corporation, Catalogue No. 14-602), phosphatidylinositol (0.2 μg/well), and the test compound were mixed in a 384-well plate in a reaction buffer (50 mM Hepes, 10 mM NaCl, 10 mM MgCl2, 2 mM EGTA, 2 mM DTT, pH 7.3) (total 10 μl), and incubated at 37° C. for 3 hours. After the reaction, 10 μL of a Kinase-Glo Plus reagent (Promega, Catalogue No. V3772) was added thereto, and a luminescence was measured with a luminometer.
(Kinase-Glo measures the ATP left after a reaction by luminescence.)

The test system of test [1] is Spleen cells prepared from male LEW/CrlCrlj rats (B cell proliferation). The test is described as follows: Rat B cell proliferation inhibition test (anti-rat IgM, [3H]thymidine). In kind it is cell-based. As to conditions: anti-rat IgM 3 μg/well, 48 hours culture. The protocol: 4. Rat B Cell Proliferation Inhibition Test
Spleen cells (1.0×10^5 cells/well) prepared from male LEW/CrlCrlj rats (Charles River Laboratories, Japan, Inc.), mouse F(ab′)2 fragment anti-rat IgM (3 μg/well, SouthernBiotech Associates, Inc., Catalogue No. 3082-14) and the test compound dissolved in DMSO (final DMSO concentration 0.1%) were mixed in a 96-well plate using a 10% FCS-containing RPMI-1640 culture medium (total 200 μL). They were cultured in a CO2 incubator for 48 hours and [^3H]thymidine (925 GBq/mmol, Moravek Biochemicals, Inc., Catalogue No. MT6038) was added thereto at 0.037 MBq/well at 4 hours before completion of culture. Cells were harvested in a GF/C glass filter using a cell harvester, and a radioactivity on the filter was measured using a liquid scintillation counter.

T1 sequence (O00329 whole entry): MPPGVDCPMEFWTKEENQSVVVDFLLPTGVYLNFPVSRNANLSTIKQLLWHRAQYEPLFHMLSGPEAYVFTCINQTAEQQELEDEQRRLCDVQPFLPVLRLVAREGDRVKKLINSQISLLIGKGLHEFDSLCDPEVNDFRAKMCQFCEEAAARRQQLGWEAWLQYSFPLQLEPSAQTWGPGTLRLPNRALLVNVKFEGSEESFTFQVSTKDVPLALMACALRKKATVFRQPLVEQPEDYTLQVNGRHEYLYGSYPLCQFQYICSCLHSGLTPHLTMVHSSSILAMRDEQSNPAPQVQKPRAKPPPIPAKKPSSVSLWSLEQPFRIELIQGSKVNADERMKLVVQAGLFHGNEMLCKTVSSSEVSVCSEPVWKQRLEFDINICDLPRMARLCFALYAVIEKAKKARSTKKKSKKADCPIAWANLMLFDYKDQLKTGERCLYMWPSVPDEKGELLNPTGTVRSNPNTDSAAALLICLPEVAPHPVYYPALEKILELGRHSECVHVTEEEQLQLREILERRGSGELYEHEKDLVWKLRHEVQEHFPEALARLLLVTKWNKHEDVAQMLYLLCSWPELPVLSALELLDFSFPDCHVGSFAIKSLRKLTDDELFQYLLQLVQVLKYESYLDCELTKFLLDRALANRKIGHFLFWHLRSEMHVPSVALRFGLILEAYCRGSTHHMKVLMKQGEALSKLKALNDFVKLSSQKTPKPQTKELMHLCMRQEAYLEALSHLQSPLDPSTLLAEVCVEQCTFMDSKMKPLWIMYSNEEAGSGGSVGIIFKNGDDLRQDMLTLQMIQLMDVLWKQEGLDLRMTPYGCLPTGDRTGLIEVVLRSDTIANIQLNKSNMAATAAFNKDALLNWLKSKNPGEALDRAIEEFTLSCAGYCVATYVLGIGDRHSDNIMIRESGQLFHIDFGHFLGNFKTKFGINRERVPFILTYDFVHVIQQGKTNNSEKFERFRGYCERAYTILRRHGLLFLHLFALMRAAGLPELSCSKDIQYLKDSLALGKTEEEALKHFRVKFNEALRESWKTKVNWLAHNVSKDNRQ
T1 sequence (P27986 whole entry partner): as the sequence (P27986 whole entry partner) above

What is called IC50 is the concentration that gives 50% inhibition. Take `FC(F)c1nc2ccccc2n1-c1cc(N2CCOCC2)nc(NCC2CCN(C3CCC(F)(F)CC3)CC2)n1` [Example 36]: the IC50 on human PI3Kδ enzyme is 17 nM; on Human PI3Kα it was 6700 nM; in test [1], 6.8 nM.
Take `C[C@H]1COCCN1c1cc(-n2c(C(F)F)nc3ccccc32)nc(NCC2CCN(C3CCOCC3)CC2)n1` [Example 38]: the results for the IC50 (at human PI3Kδ enzyme; on Human PI3Kα; in test [1]) were 23 nM, 2200 nM and 2.9 nM, respectively.
The matching figures for `FC(F)c1nc2ccccc2n1-c1cc(OCC2CCN(C3CCOCC3)CC2)nc(N2CCOCC2)n1` [Example 40]: 20 nM, over 10000 nM and 9 nM.
`FC(F)c1nc2ccccc2n1-c1cc(N2CCOCC2)nc(NCC2CCN([C@H]3CC[C@@H](F)CC3)CC2)n1` [Example 43-2, 4-[2-(difluoromethyl)-1H-benzimidazol-1-yl]-N-{[1-(cis-4-fluorocyclohexyl)piperidin-4-yl]methyl}-6-(morpholin-4-yl)pyrimidin-2-amine dihydrochloride]: the results for the IC50 (on human PI3Kδ enzyme; at Human PI3Kα; in test [1]) were 8.6 nM, 8000 nM and 3.1 nM, respectively.
For `CC(C)(O)CNC12CCC(CNc3nc(N4CCOCC4)cc(-n4c(C(F)F)nc5ccccc54)n3)(CC1)CC2` [Example 85, 1-({4-[({4-[2-(difluoromethyl)-1H-benzimidazol-1-yl]-6-(morpholin-4-yl)pyrimidin-2-yl}amino)methyl]bicyclo[2.2.2]oct-1-yl}amino)-2-methylpropan-2-ol], the IC50 on human PI3Kδ enzyme stood at 21 nM; at Human PI3Kα, 5500 nM; in test [1] it was 2.6 nM.
The matching figures for `COC(=O)N[C@H]1CCN([C@H]2CC[C@H](Oc3cc(-n4c(C(F)F)nc5ccccc54)nc(N4CCOCC4)n3)CC2)C1=O` [Example 87, methyl{(3S)-1-[trans-4-({6-[2-(difluoromethyl)-1H-benzimidazol-1-yl]-2-(morpholin-4-yl)pyrimidin-4-yl}oxy)cyclohexyl]-2-oxopyrrolidin-3-yl}carbamate]: 4.9 nM, over 10000 nM and 3.5 nM.
For `CC(=O)N[C@H]1CCN([C@H]2CC[C@H](Oc3cc(-n4c(C(F)F)nc5ccccc54)nc(N4CCOCC4)n3)CC2)C1=O` [Example 99], the IC50 at human PI3Kδ enzyme is 16 nM; at Human PI3Kα it was over 10000 nM; in test [1] it was 2.5 nM.
In the case of `CN(CC(C)(C)O)C12CCC(CNc3nc(N4CCOCC4)cc(-n4c(C(F)F)nc5ccccc54)n3)(CC1)CC2` [Example 121], the results for the IC50 (against human PI3Kδ enzyme; on Human PI3Kα; in test [1]) were 13 nM, 4900 nM and 2 nM, respectively.
On to `Cc1ccc2nc(C(F)F)n(-c3cc(N4CCOCC4)nc(NC[C@H]4CC[C@H](N5CCOCC5)CC4)n3)c2c1` [Example 132], for which the IC50 against human PI3Kδ enzyme was 12 nM; on Human PI3Kα it was over 10000 nM; in test [1], 1.5 nM.
The matching figures for `O=C(CNC1CCCC1)N[C@H]1CC[C@H](Oc2cc(-n3c(C(F)F)nc4ccccc43)nc(N3CCOCC3)n2)CC1` [Example 134]: 4.7 nM, 6600 nM and 3.4 nM.
For `O=C(CNC1CCCCC1)N[C@H]1CC[C@H](Oc2cc(-n3c(C(F)F)nc4ccccc43)nc(N3CCOCC3)n2)CC1` [Example 135], the IC50 came to 3 nM at human PI3Kδ enzyme, 8000 nM on Human PI3Kα and 2.5 nM in test [1].
Consider `O=C(CNC1CCOCC1)N[C@H]1CC[C@H](Oc2cc(-n3c(C(F)F)nc4ccccc43)nc(N3CCOCC3)n2)CC1` [Example 136], for which the IC50 is 4 nM against human PI3Kδ enzyme, over 10000 nM at Human PI3Kα and 1.7 nM in test [1].
The matching figures for `CC1(NCC(=O)N[C@H]2CC[C@H](Oc3cc(-n4c(C(F)F)nc5ccccc54)nc(N4CCOCC4)n3)CC2)CC1` [Example 137]: 5.2 nM, over 10000 nM and 4.6 nM.
As to `CCOC(=O)N1CCN(c2ccc(CNc3nc(N4CCOCC4)cc(-n4c(C(F)F)nc5ccccc54)n3)cc2)CC1` [Example 158], the IC50 on human PI3Kδ enzyme was determined as 11 nM; on Human PI3Kα it was 6700 nM; in test [1], 10 nM.
Turning to `FC(F)c1nc2ccccc2n1-c1cc(N2CCOCC2)nc(NCC2CCN(C3CCCCC3)CC2)n1` [Example 193], the figures for the IC50 (against human PI3Kδ enzyme; at Human PI3Kα; in test [1]) were 4.9 nM, 8200 nM and 4.1 nM, respectively.
For `FC(F)c1nc2ccccc2n1-c1cc(N[C@H]2C[C@@H]3C[C@H](N4CCOCC4)C[C@@H]3C2)nc(N2CCOCC2)n1` [Example 195], the IC50 at human PI3Kδ enzyme was 4.1 nM; on Human PI3Kα it was over 10000 nM; in test [1] it was 3 nM.
For `CN(CC(=O)NC1CCC(Oc2cc(-n3c(C(F)F)nc4ccccc43)nc(N3CCOCC3)n2)CC1)C1CCC1` (stereo not drawn) [Example 196], the values for the IC50 (against human PI3Kδ enzyme; at Human PI3Kα; in test [1]) were 4.8 nM, over 10000 nM and 3.6 nM, respectively.
Consider `NC1(C(=O)N[C@H]2CC[C@H](Oc3cc(-n4c(C(F)F)nc5ccccc54)nc(N4CCOCC4)n3)CC2)CCC1` [Example 215], for which the IC50 against human PI3Kδ enzyme is 13 nM; at Human PI3Kα, over 10000 nM; in test [1], 6.7 nM.
Consider `NC1(C(=O)N[C@H]2CC[C@H](Oc3cc(-n4c(C(F)F)nc5ccccc54)nc(N4CCOCC4)n3)CC2)CCCC1` [Example 216], for which the IC50 at human PI3Kδ enzyme was 13 nM; on Human PI3Kα, over 10000 nM; in test [1] it was 5.7 nM.
Consider `C[C@@H]1C[C@@H](N2CCC(CNc3nc(N4CCOCC4)cc(-n4c(C(F)F)nc5ccccc54)n3)CC2)C[C@H](C)O1` [Example 224], for which the IC50 against human PI3Kδ enzyme was 3.3 nM; on Human PI3Kα, 7300 nM; in test [1], 1.5 nM.
The matching figures for `COC(=O)N[C@H]1CCN([C@H]2CC[C@H](Nc3nc(N4CCOCC4)cc(-n4c(C(F)F)nc5ccccc54)n3)CC2)C1=O` [Example 248, methyl{(3S)-1-[trans-4-({4-[2-(difluoromethyl)-1H-benzimidazol-1-yl]-6-(morpholin-4-yl)pyrimidin-2-yl}amino)cyclohexyl]-2-oxopyrrolidin-3-yl}carbamate]: 34 nM, 720 nM and 1.4 nM.
`COC(=O)N[C@@H]1CCN([C@H]2CC[C@H](Oc3cc(-n4c(C(F)F)nc5ccccc54)nc(N4CCOCC4)n3)CC2)C1=O` [Example 389]: the IC50 was 11 nM against human PI3Kδ enzyme, over 10000 nM at Human PI3Kα and 4.4 nM in test [1].
Turning to `CCOC(=O)N[C@@H]1CCN([C@H]2CC[C@H](Oc3cc(-n4c(C(F)F)nc5ccccc54)nc(N4CCOCC4)n3)CC2)C1=O` [Example 423], the IC50 was 24 nM against human PI3Kδ enzyme, over 10000 nM at Human PI3Kα and 3.1 nM in test [1].
With `COC(=O)N[C@@H]1CCN([C@H]2CC[C@H](Nc3nc(N4CCOCC4)cc(-n4c(C(F)F)nc5ccccc54)n3)CC2)C1=O` [Example 441], the IC50 against human PI3Kδ enzyme stood at 48 nM; on Human PI3Kα, 1400 nM; in test [1] it was 1.8 nM.
